Source: publication PMC5085761 (International Journal of Molecular Sciences, 2016)

Tests used:
LLC-PK1 monolayers = assay: Apical-to-basal transport through LLC-PK1 monolayers; assay type: in vitro ADME, pig
Experimental: The LLC-PK1 cell line was purchased from DS Pharma Biomedical (Osaka, Japan). Cells were maintained in Dulbecco’s modified Eagle’s medium (DMEM; Life Technologies Japan, Tokyo, Japan) supplemented with 10% (v/v) fetal bovine serum (American Type Culture Collection, Manassas, VA, USA) and antibiotics (100 U/mL penicillin and 100 μg/mL streptomycin (Life Technologies Japan)). Cells were cultured at 37 °C under an atmosphere containing 5% CO2 before the start of the experiments.
Cells were seeded at a density of 1.5 × 10^6 cells/0.25 mL on the membrane of cell culture inserts fitting 24-well plates (upper compartment, apical side; Becton Dickinson, Franklin Lakes, NJ, USA). Flat-bottom 24-well tissue culture plates (Becton Dickinson) containing 0.95 mL of culture medium per well were used as the basolateral side (bottom compartment).
LLC-PK1 monolayer formation was monitored by the measurement of TER using an EVOM-2 and Endohm24 (World Precision Instruments, Inc., Sarasota, FL, USA) according to the manufacturer’s protocol. […] [^3H]Mannitol transport was measured as described in Section 4.3 for the validation of tight junction formation because mannitol passes through the cell monolayers via the paracellular route.
Experimental procedures were performed as described previously with minor modifications. After cultivation as described above, the culture media in both compartments were replaced with Na^+ buffer (137 mM NaCl, 2.7 mM KCl, 8 mM Na2HPO4, 1.5 mM KH2PO4, 5.6 mM D-glucose, 0.9 mM CaCl2, and 0.5 mM MgCl2; pH 7.4 at 37 °C), and the cells were preincubated for 10 min at 37 °C under normal air conditions. After the buffer was removed from each compartment, the permeability experiments were started with the addition of 0.25 mL of Na^+ buffer containing radiolabeled tracers (final concentration: 81 nM for [^3H]mannitol and 10 μM for the ^14C-labeled amino acid tracers) in each upper compartment, and 0.95 mL of Na^+ buffer in each bottom compartment. The inserts were placed into new 24-well culture plates containing 0.95 mL/well of Na^+ buffer after 5, 15, 30, 60, and 90 min of incubation. Subsequently, the cells were incubated up to 120 min at 37 °C under normal air conditions.
The apical-to-basal permeability was measured by sampling an aliquot of the buffer from the upper and bottom compartment at the indicated times. To evaluate intracellular accumulation, the cells were lysed in 0.5 mL of 0.1N NaOH at room temperature following rapid washing of the cells with ice-cold Na^+ buffer. The radioactivity of each aliquot was measured with an LSC6000SC (Beckman Coulter, Inc., Brea, CA, USA) or Tri-Carb 2910TR liquid scintillation counter (PerkinElmer) using Ultima Gold (PerkinElmer).

[1] = system: L-type amino acid transporter 1 (LAT1); set-up: method as in PMID 23647854; conditions: cited from earlier work
[2] = system: alanine-serine-cysteine transporter 2 (ASCT2); set-up: method as in PMID 23647854; conditions: cited from earlier work
[3] = system: sodium-coupled neutral amino acid transporter 2 (SNAT2); set-up: method as in PMID 23647854; conditions: cited from earlier work
LLC-PK1 monolayer model = assay: Inhibition study of [14C]fluciclovine apical-to-basal transport, LLC-PK1 monolayer model; conditions: 1 mM inhibitor, 10 µM [14C]fluciclovine
From the text: Natural and synthetic amino acids were used as inhibitors: MeAIB (2-(methylamino)-isobutyric acid, for system A in the presence of Na^+); Thr (L-threonine, for system ASC in the presence of Na^+); and BCH (2-aminobicyclo[2,2,1]heptane-2-carboxylic acid, for system L in the absence of Na^+).

[18F]fluciclovine uptake = system: [18F]fluciclovine uptake; set-up: method as in PMID 21536930; conditions: cited from earlier work
[4] = substrate: N[C@]1(C(=O)O)C[C@@H](F)C1; assay: cells, lysate or membranes named; conditions: not significant vs control vesicles, pH 7.0

With `OC[C@@H](O)[C@@H](O)[C@H](O)[C@H](O)CO` [[^3H]mannitol, D-[1-^3H(N)]mannitol] the “mean percentage of [3H]mannitol permeation” value (shortened to “mean percentage”) (LLC-PK1 monolayers; day 1 after seeding) was 19.3%, the “mean percentage” value (LLC-PK1 monolayers; day 4 after seeding) was 1.23% and the “mean percentage” value (LLC-PK1 monolayers; day 7 after seeding) was 2.29%.

In the case of `N[C@]1(C(=O)O)C[C@@H](F)C1` [[^18F]fluciclovine, trans-1-amino-3-[^18F]fluorocyclobutanecarboxylic acid], the Km [1] is listed as 230 µM, the Km [2] is listed as 92 µM and the Km [3] is listed as 222 µM.

With `C[C@@H](O)[C@H](N)C(=O)O` [Thr, L-threonine] the “inhibition of [14C]fluciclovine apical-to-basal transport” value (LLC-PK1 monolayer model; Na+ buffer) was “significant inhibition”.

In the case of `Nc1ccc(C(=O)NCC(=O)O)cc1` [p-aminohippurate], the “inhibition of [18F]fluciclovine uptake” value ([18F]fluciclovine uptake) is given as “approximately 5%”.

With `CNC(C)(C)C(=O)O` [MeAIB, 2-(methylamino)-isobutyric acid] the “inhibition of [14C]fluciclovine apical-to-basal transport” value (LLC-PK1 monolayer model; Na+ buffer) was “no significant inhibition”.

For `NC1(C(=O)O)CC2CCC1C2` (stereo not drawn) [BCH, 2-aminobicyclo[2,2,1]heptane-2-carboxylic acid], the “inhibition of [14C]fluciclovine apical-to-basal transport” value (LLC-PK1 monolayer model; Na+-free buffer) was “no significant inhibition”.

B1: human MRP4 (Homo sapiens) (protein)
chain: MLPVYQEVKPNPLQDANLCSRVFFWWLNPLFKIGHKRRLEEDDMYSVLPEDRSQHLGEELQGFWDKEVLRAENDAQKPSLTRAIIKCYWKSYLVLGIFTLIEESAKVIQPIFLGKIINYFENYDPMDSVALNTAYAYATVLTFCTLILAILHHLYFYHVQCAGMRLRVAMCHMIYRKALRLSNMAMGKTTTGQIVNLLSNDVNKFDQVTVFLHFLWAGPLQAIAVTALLWMEIGISCLAGMAVLIILLPLQSCFGKLFSSLRSKTATFTDARIRTMNEVITGIRIIKMYAWEKSFSNLITNLRKKEISKILRSSCLRGMNLASFFSASKIIVFVTFTTYVLLGSVITASRVFVAVTLYGAVRLTVTLFFPSAIERVSEAIVSIRRIQTFLLLDEISQRNRQLPSDGKKMVHVQDFTAFWDKASETPTLQGLSFTVRPGELLAVVGPVGAGKSSLLSAVLGELAPSHGLVSVHGRIAYVSQQPWVFSGTLRSNILFGKKYEKERYEKVIKACALKKDLQLLEDGDLTVIGDRGTTLSGGQKARVNLARAVYQDADIYLLDDPLSAVDAEVSRHLFELCICQILHEKITILVTHQLQYLKAASQILILKDGKMVQKGTYTEFLKSGIDFGSLLKKDNEESEQPPVPGTPTLRNRTFSESSVWSQQSSRPSLKDGALESQDTENVPVTLSEENRSEGKVGFQAYKNYFRAGAHWIVFIFLILLNTAAQVAYVLQDWWLSYWANKQSMLNVTVNGGGNVTEKLDLNWYLGIYSGLTVATVLFGIARSLLVFYVLVNSSQTLHNKMFESILKAPVLFFDRNPIGRILNRFSKDIGHLDDLLPLTFLDFIQTLLQVVGVVSVAVAVIPWIAIPLVPLGIIFIFLRRYFLETSRDVKRLESTTRSPVFSHLSSSLQGLWTIRAYKAEERCQELFDAHQDLHSEAWFLFLTTSRWFAVRLDAICAMFVIIVAFGSLILAKTLDAGQVGLALSYALTLMGMFQWCVRQSAEVENMMISVERVIEYTDLEKEAPWEYQKRPPPAWPHEGVIIFDNVNFMYSPGGPLVLKHLTALIKSQEKVGIVGRTGAGKSSLISALFRLSEPEGKIWIDKILTTEIGLHDLRKKMSIIPQEPVLFTGTMRKNLDPFNEHTDEELWNALQEVQLKETIEDLPGKMDTELAESGSNFSVGQRQLVCLARAILRKNQILIIDEATANVDPRTDELIQKKIREKFAHCTVLTIAHRLNTIIDSDKIMVLDSGRLKEYDEPYVLLQNKESLFYKMVQQLGKAEAAALTETAKQVYFKRNYPHIGHTDHMVTNTSNGQPSTLTIFETAL
B1 gave a Km ([4]; other: MRP4 vesicles) of 15.3 ± 44.1 mM.

B2: human BCRP (Homo sapiens) (protein)
chain: MSSSNVEVFIPVSQGNTNGFPATASNDLKAFTEGAVLSFHNICYRVKLKSGFLPCRKPVEKEILSNINGIMKPGLNAILGPTGGGKSSLLDVLAARKDPSGLSGDVLINGAPRPANFKCNSGYVVQDDVVMGTLTVRENLQFSAALRLATTMTNHEKNERINRVIQELGLDKVADSKVGTQFIRGVSGGERKRTSIGMELITDPSILFLDEPTTGLDSSTANAVLLLLKRMSKQGRTIIFSIHQPRYSIFKLFDSLTLLASGRLMFHGPAQEALGYFESAGYHCEAYNNPADFFLDIINGDSTAVALNREEDFKATEIIEPSKQDKPLIEKLAEIYVNSSFYKETKAELHQLSGGEKKKKITVFKEISYTTSFCHQLRWVSKRSFKNLLGNPQASIAQIIVTVVLGLVIGAIYFGLKNDSTGIQNRAGVLFFLTTNQCFSSVSAVELFVVEKKLFIHEYISGYYRVSSYFLGKLLSDLLPMRMLPSIIFTCIVYFMLGLKPKADAFFVMMFTLMMVAYSASSMALAIAAGQSVVSVATLLMTICFVFMMIFSGLLVNLTTIASWLSWLQYFSIPRYGFTALQHNEFLGQNFCPGLNATGNNPCNYATCTGEEYLVKQGIDLSPWGLWKNHVALACMIVIFLTIAYLKLLFLKKYS
Work on B2 yielded a Km ([4]; other: BCRP vesicles) of 1.34 ± 1.45 mM.
